Laboratory results reported in ChEMBL document CHEMBL1127134, “Synthesis and antibacterial activity of (1R,5R,6R)-2-tert-butyl-6-(1-hydroxyethyl)oxapenem-3-carboxylic acid” (1993).
≈ marks a conversion by molar mass, not a printed value.

Experiments:
Staphylococcus aureus [1] = assay: Minimum inhibitory concentration required for the antibacterial activity against Staphylococcus aureus 25470; type: functional
Staphylococcus aureus [2] = assay: Minimum inhibitory concentration for the antibacterial activity against Staphylococcus aureus 48N Munchen; type: functional
Staphylococcus aureus [3] = assay: Minimum inhibitory concentration required for the antibacterial activity against Staphylococcus aureus 4978 Israel; type: functional
Staphylococcus aureus [4] = assay: Minimum inhibitory concentration required for the antibacterial activity against Staphylococcus aureus 13N Munchen; type: functional
Staphylococcus aureus [5] = assay: Minimum inhibitory concentration required for the antibacterial activity against Staphylococcus aureus 17N Munchen; type: functional
Staphylococcus aureus [6] = assay: Minimum inhibitory concentration required for the antibacterial activity against Staphylococcus aureus 77 Innsbruck; type: functional
Staphylococcus aureus [7] = assay: Minimum inhibitory concentration required for the antibacterial activity against Staphylococcus aureus 90 Innsbruck; type: functional
Staphylococcus aureus [8] = assay: Minimum inhibitory concentration required for the antibacterial activity against Staphylococcus aureus 25463; type: functional
Staphylococcus aureus [9] = assay: Minimum inhibitory concentration required for the antibacterial activity against Staphylococcus aureus 25085; type: functional
Staphylococcus aureus [10] = assay: Minimum inhibitory concentration required for the antibacterial activity against Staphylococcus aureus 25768; type: functional
Staphylococcus aureus [11] = assay: Minimum inhibitory concentration required for the antibacterial activity against Staphylococcus aureus 25464; type: functional
Staphylococcus aureus [12] = assay: Minimum inhibitory concentration required for the antibacterial activity against Staphylococcus aureus 41h Belgium; type: functional
Staphylococcus aureus [13] = assay: Minimum inhibitory concentration required for the antibacterial activity against Staphylococcus aureus 79B Innsbruck; type: functional
Staphylococcus aureus [14] = assay: Minimum inhibitory concentration required for the antibacterial activity against Staphylococcus aureus 1756; type: functional; conditions: Staphylococcus aureus; read-out: MIC
Staphylococcus aureus [15] = assay: Minimum inhibitory concentration required for the antibacterial activity against Staphylococcus aureus 21b Belgium; type: functional
Staphylococcus aureus [16] = assay: Minimum inhibitory concentration required for the antibacterial activity against Staphylococcus aureus 25697; type: functional
Staphylococcus aureus [17] = assay: Minimum inhibitory concentration required for the antibacterial activity against Staphylococcus aureus 86 Innsbruck; type: functional
Staphylococcus aureus [18] = assay: Minimum inhibitory concentration required for the antibacterial activity against Staphylococcus aureus 48N Munchen; type: functional
Bacteroides fragilis [19] = assay: Minimum inhibitory concentration required for the antibacterial activity against Bacillus fragilis Kr 1 TV; type: functional
Bacteroides fragilis [20] = assay: Minimum inhibitory concentration required for the antibacterial activity against Bacillus fragilis 4661 Kr; type: functional
Clostridium sporogenes = assay: Minimum inhibitory concentration required for the antibacterial activity against Clostridium sporogenes; type: functional
Bacteroides fragilis [21] = assay: Minimum inhibitory concentration required for the antibacterial activity against Bacillus fragilis L 1168 Italien; type: functional
Bacteroides ovatus = assay: Minimum inhibitory concentration required for the antibacterial activity against Bacillus ovatus Heidelberg; type: functional, bacillus ovatu
Bacteroides fragilis [22] = assay: Minimum inhibitory concentration required for the antibacterial activity against Bacillus fragilis 4891/91 Kr; type: functional
Clostridium butyricum = assay: Minimum inhibitory concentration required for the antibacterial activity against Clostridium butyricum; type: functional
Clostridium septicum = assay: Minimum inhibitory concentration required for the antibacterial activity against Clostridium septicum; type: functional
Bacteroides fragilis [23] = assay: Minimum inhibitory concentration required for the antibacterial activity against Bacillus fragilis 2034/35 Kr 43; type: functional
[24] = tested on: Parabacteroides distasonis; assay: Minimum inhibitory concentration required for the antibacterial activity against Bacillus distasonis Heidelberg; type: functional
Fusobacterium nucleatum = assay: Minimum inhibitory concentration required for the antibacterial activity against Fusobacterium nucleatum DSM 20482; type: functional
[25] = tested on: Peptoniphilus asaccharolyticus; assay: Minimum inhibitory concentration required for the antibacterial activity against Peptococcus asacchar. DSM 20463; type: functional
Thomasclavelia ramosa = assay: Minimum inhibitory concentration required for the antibacterial activity against Clostridium ramosum DSM 1402; type: functional
Bacteroides fragilis [26] = assay: Minimum inhibitory concentration required for the antibacterial activity against Bacillus fragilis ES 25; type: functional
[27] = tested on: Parabacteroides distasonis; assay: Minimum inhibitory concentration required for the antibacterial activity against Bacillus distasonis Kr; type: functional
Bacteroides fragilis [28] = assay: Minimum inhibitory concentration required for the antibacterial activity against Bacillus fragilis 010848; type: functional
Clostridium perfringens [29] = assay: Minimum inhibitory concentration required for the antibacterial activity against Clostridium perfringens DSM 756; type: functional
[30] = tested on: Prevotella melaninogenica; assay: Minimum inhibitory concentration required for the antibacterial activity against Bacillus melaninogenicus Heidelberg; type: functional
Phocaeicola vulgatus = assay: Minimum inhibitory concentration required for the antibacterial activity against Bacillus valgatus Kr III; type: functional
Bacteroides fragilis [31] = assay: Minimum inhibitory concentration required for the antibacterial activity against Bacillus fragilis Kr II; type: functional
[32] = tested on: Bacteroides thetaiotaomicron; assay: Minimum inhibitory concentration required for the antibacterial activity against Bacillus thetaiotaomicron DSM 2079; type: functional
[33] = tested on: Peptostreptococcus anaerobius; assay: Minimum inhibitory concentration required for the antibacterial activity against Peptostrept. anaer. Kr I; type: functional
[34] = tested on: Fusobacterium necrophorum; assay: Minimum inhibitory concentration required for the antibacterial activity against Sphaerophorus necrophorus Kr; type: functional
Clostridium perfringens [35] = assay: Minimum inhibitory concentration required for the antibacterial activity against Clostridium perfringens 24072; type: functional
Bacteroides fragilis [36] = assay: Minimum inhibitory concentration required for the antibacterial activity against Bacillus fragilis 1560 I/82; type: functional
Clostridium perfringens [37] = assay: Minimum inhibitory concentration required for the antibacterial activity against Clostridium perfringens 1024027; type: functional
Anaerococcus prevotii = assay: Minimum inhibitory concentration required for the antibacterial activity against Peptococcus prevotii DSM 20548; type: functional
Bacteroides fragilis [38] = assay: Minimum inhibitory concentration required for the antibacterial activity against Bacillus fragilis GA I - 0558 Japan; type: functional
Bacteroides fragilis [39] = assay: Minimum inhibitory concentration required for the antibacterial activity against Bacillus fragilis DSM 2151; type: functional
[40] = tested on: Bacteroides thetaiotaomicron; assay: Minimum inhibitory concentration required for the antibacterial activity against Bacillus thetaiotaomicron 235 Munchen; type: functional
Clostridium perfringens [41] = assay: Minimum inhibitory concentration required for the antibacterial activity against Clostridium perfringens 24071; type: functional
[42] = tested on: Prevotella melaninogenica; assay: Minimum inhibitory concentration required for the antibacterial activity against Bacillus melaninogenicus Kr; type: functional
[43] = tested on: Peptostreptococcus anaerobius; assay: Minimum inhibitory concentration required for the antibacterial activity against Peptostrept. anaer. Kr II; type: functional
[44] = tested on: Peptostreptococcus anaerobius; assay: Minimum inhibitory concentration required for the antibacterial activity against Peptostrept. anaer. DSM 20357; type: functional
[45] = tested on: Peptostreptococcus anaerobius; assay: Minimum inhibitory concentration required for the antibacterial activity against Peptostrept. anaer. 222 I/82; type: functional
Bacteroides fragilis [46] = assay: Minimum inhibitory concentration required for the antibacterial activity against Bacillus fragilis 06688; type: functional

## COc1cccc(OC)c1C(=O)N[C@@H]1C(=O)N2[C@@H]1SC(C)(C)[C@@H]2C(=O)O [METHICILLIN]
Staphylococcus aureus [1]
  MIC: > 100 µg/mL
Staphylococcus aureus [2]
  MIC: 6.25 µg/mL (≈ 16.4 µM)
Staphylococcus aureus [3]
  MIC: ≤ 0.78 µg/mL
Staphylococcus aureus [4]
  MIC: 50 µg/mL (≈ 131 µM)
Staphylococcus aureus [5]
  MIC: 3.12 µg/mL (≈ 8.2 µM)
Staphylococcus aureus [6]
  MIC: 50 µg/mL (≈ 131 µM)
Staphylococcus aureus [7]
  MIC: 50 µg/mL (≈ 131 µM)
Staphylococcus aureus [8]
  MIC: 1.56 µg/mL (≈ 4.1 µM)
Staphylococcus aureus [9]
  MIC: 6.25 µg/mL (≈ 16.4 µM)
Staphylococcus aureus [10]
  MIC: 6.25 µg/mL (≈ 16.4 µM)
Staphylococcus aureus [11]
  MIC: > 100 µg/mL
Staphylococcus aureus [12]
  MIC: > 100 µg/mL
Staphylococcus aureus [13]
  MIC: 25 µg/mL (≈ 65.7 µM)
Staphylococcus aureus [14]
  MIC: 50 µg/mL (≈ 131 µM)
Staphylococcus aureus [15]
  MIC: > 100 µg/mL
Staphylococcus aureus [16]
  MIC: 6.25 µg/mL (≈ 16.4 µM)
Staphylococcus aureus [17]
  MIC: 25 µg/mL (≈ 65.7 µM)

## CC1(C)S[C@@H]2[C@H](NC(=O)[C@H](NC(=O)N3CCN(S(C)(=O)=O)C3=O)c3ccccc3)C(=O)N2[C@H]1C(=O)O [MEZLOCILLIN]
Staphylococcus aureus [1]
  MIC: 25 µg/mL (≈ 46.3 µM)
Staphylococcus aureus [3]
  MIC: 3.12 µg/mL (≈ 5.78 µM)
Staphylococcus aureus [4]
  MIC: 50 µg/mL (≈ 92.7 µM)
Staphylococcus aureus [5]
  MIC: 12.5 µg/mL (≈ 23.2 µM)
Staphylococcus aureus [6]
  MIC: 100 µg/mL (≈ 185 µM)
Staphylococcus aureus [7]
  MIC: > 100 µg/mL
Staphylococcus aureus [8]
  MIC: 12.5 µg/mL (≈ 23.2 µM)
Staphylococcus aureus [9]
  MIC: 50 µg/mL (≈ 92.7 µM)
Staphylococcus aureus [10]
  MIC: 25 µg/mL (≈ 46.3 µM)
Staphylococcus aureus [18]
  MIC: 12.5 µg/mL (≈ 23.2 µM)
Staphylococcus aureus [11]
  MIC: 100 µg/mL (≈ 185 µM)
Staphylococcus aureus [12]
  MIC: 3.12 µg/mL (≈ 5.78 µM)
Staphylococcus aureus [13]
  MIC: 50 µg/mL (≈ 92.7 µM)
Staphylococcus aureus [14]
  MIC: 50 µg/mL (≈ 92.7 µM)
Staphylococcus aureus [15]
  MIC: 50 µg/mL (≈ 92.7 µM)
Staphylococcus aureus [16]
  MIC: 25 µg/mL (≈ 46.3 µM)
Staphylococcus aureus [17]
  MIC: 50 µg/mL (≈ 92.7 µM)

## CCn1cc(C(=O)O)c(=O)c2cc(F)c(N3CCNCC3)cc21 [NORFLOXACIN]
Bacteroides fragilis [19]
  MIC: > 16 µg/mL
Bacteroides fragilis [20]
  MIC: > 16 µg/mL
Clostridium sporogenes
  MIC: 16 µg/mL (≈ 50.1 µM)
Bacteroides fragilis [21]
  MIC: > 16 µg/mL
Bacteroides ovatus
  MIC: > 16 µg/mL
Bacteroides fragilis [22]
  MIC: > 16 µg/mL
Clostridium butyricum
  MIC: 16 µg/mL (≈ 50.1 µM)
Clostridium septicum
  MIC: 16 µg/mL (≈ 50.1 µM)
Bacteroides fragilis [23]
  MIC: > 16 µg/mL
[24]
  MIC: > 16 µg/mL
Fusobacterium nucleatum
  MIC: 16 µg/mL (≈ 50.1 µM)
[25]
  MIC: 4 µg/mL (≈ 12.5 µM)
Thomasclavelia ramosa
  MIC: > 16 µg/mL
Bacteroides fragilis [26]
  MIC: > 16 µg/mL
[27]
  MIC: > 16 µg/mL
Bacteroides fragilis [28]
  MIC: > 16 µg/mL
Clostridium perfringens [29]
  MIC: > 16 µg/mL
[30]
  MIC: > 16 µg/mL
Phocaeicola vulgatus
  MIC: > 16 µg/mL
Bacteroides fragilis [31]
  MIC: > 16 µg/mL
[32]
  MIC: > 16 µg/mL
[33]
  MIC: > 16 µg/mL
[34]
  MIC: 2 µg/mL (≈ 6.26 µM)
Clostridium perfringens [35]
  MIC: 4 µg/mL (≈ 12.5 µM)
Bacteroides fragilis [36]
  MIC: > 16 µg/mL
Clostridium perfringens [37]
  MIC: 2 µg/mL (≈ 6.26 µM)
Anaerococcus prevotii
  MIC: > 16 µg/mL
Bacteroides fragilis [38]
  MIC: > 16 µg/mL
Bacteroides fragilis [39]
  MIC: > 16 µg/mL
[40]
  MIC: > 16 µg/mL
Clostridium perfringens [41]
  MIC: 4 µg/mL (≈ 12.5 µM)
[42]
  MIC: 16 µg/mL (≈ 50.1 µM)
[43]
  MIC: 2 µg/mL (≈ 6.26 µM)
[44]
  MIC: > 16 µg/mL
[45]
  MIC: > 16 µg/mL
Bacteroides fragilis [46]
  MIC: > 16 µg/mL

## Cc1onc(-c2ccccc2)c1C(=O)N[C@@H]1C(=O)N2[C@@H]1SC(C)(C)[C@@H]2C(=O)O [OXACILLIN]
Staphylococcus aureus [1]
  MIC: 100 µg/mL (≈ 249 µM)
Staphylococcus aureus [3]
  MIC: ≤ 0.78 µg/mL
Staphylococcus aureus [4]
  MIC: > 100 µg/mL
Staphylococcus aureus [5]
  MIC: 1.56 µg/mL (≈ 3.89 µM)
Staphylococcus aureus [6]
  MIC: 100 µg/mL (≈ 249 µM)
Staphylococcus aureus [7]
  MIC: > 100 µg/mL
Staphylococcus aureus [8]
  MIC: 1.56 µg/mL (≈ 3.89 µM)
Staphylococcus aureus [9]
  MIC: 3.12 µg/mL (≈ 7.77 µM)
Staphylococcus aureus [10]
  MIC: 6.25 µg/mL (≈ 15.6 µM)
Staphylococcus aureus [18]
  MIC: ≤ 0.78 µg/mL
Staphylococcus aureus [11]
  MIC: > 100 µg/mL
Staphylococcus aureus [12]
  MIC: > 100 µg/mL
Staphylococcus aureus [13]
  MIC: 50 µg/mL (≈ 125 µM)
Staphylococcus aureus [14]
  MIC: 50 µg/mL (≈ 125 µM)
Staphylococcus aureus [15]
  MIC: > 100 µg/mL
Staphylococcus aureus [16]
  MIC: 1.56 µg/mL (≈ 3.89 µM)
Staphylococcus aureus [17]
  MIC: 100 µg/mL (≈ 249 µM)
